System: MALME3 melanoma viability, CellTiter-Glo luminescence, 24 h
Experiment: MALME3 melanoma cell viability loss, dose response, orthogonal assay for MITF inhibitor project, CellTiter-Glo, cherry-picked (AID 493191)

SMILES | AC50 [µM]
CCN1CCN(c2ccc(S(=O)(=O)N3CCCCC3)cc2NC(=O)/C=C/c2ccc([N+](=O)[O-])cc2)CC1 | 23.9
Cc1ccc2sc(N(CCCN(C)C)C(=O)c3ccc(S(=O)(=O)N(C)C4CCCCC4)cc3)nc2c1C | 18.1
O=C(CNC(=O)c1ccccc1)N/N=C/c1ccc([N+](=O)[O-])s1 | 26.2
N=c1n(CC(=O)c2ccc([N+](=O)[O-])cc2)c2ccccc2n1Cc1ccccc1 | 25.4
Cc1nc2ccccn2c1C(=O)N/N=C/c1ccc([N+](=O)[O-])o1 | 34
C=C1C(=O)O[C@@H]2[C@H]1[C@@H](OC(=O)/C(C)=C/C)C/C(C)=C\C(=O)/C=C(\C)[C@@H]2O | 6.41
Cc1ccc(C)c(C(=O)Cn2ncc(Cl)c(Cl)c2=O)c1 | 16
Cc1ccc(NC(=O)c2ccc([N+](=O)[O-])o2)cc1S(=O)(=O)N1CCOCC1 | 26.1
COc1ccc(S(=O)(=O)N(C(C)=O)c2ccc(OC(C)=O)c3ccccc23)cc1[N+](=O)[O-] | 18.1
Cc1ccc(S(=O)(=O)N2CCCCC2)cc1NC(=O)Cn1ncc(Cl)c(Cl)c1=O | 6.08
Cc1cc(-n2c(SCC(=O)NCCC3=CCCCC3)nc3n[nH]c(C)c3c2=N)ccc1Cl | 28.6
O=C(Cn1ncc(Cl)c(Cl)c1=O)NC1CCCCC1 | 24.8
Cn1c(SCC(=O)N/N=C/c2ccc([N+](=O)[O-])s2)nnc1-c1ccccc1 | 14.7
CC(C)C(=O)N1CCN(c2ccc(NC(=O)c3ccc([N+](=O)[O-])o3)cc2)CC1 | 12.8
CCOC(=O)CCc1ccc(NC(=O)/C=C/c2ccc([N+](=O)[O-])o2)cc1 | 13.9
CC1CCC/C=C/C(=O)c2c(O)cc(O)cc2CC(=O)O1 (configuration not stated) | 21.2
CS(=O)(=O)c1ccc(S(=O)CC(=O)OCc2ccccc2)c([N+](=O)[O-])c1 (configuration not stated) | 20
